Assays:
DDR1 receptor = test: DDR1 cell based assay (PathHunter U2OS DDR1); conditions: U2OS-DDR1 cells, bovine Type II Collagen 20 μg/ml stimulation
Experimental: The inhibition of DDR1 receptor activation by compounds was evaluated by PathHunter® U2OS DDR1 assay (Eurofins DiscoverX), according to the manufacturer's instructions. Briefly, U2O5-DDR1 cells were seeded in white 384-well plates at a density of 5000 cells/well and incubated for 2 hours at 37° C. and 5% CO2. Cells were then treated with compounds at different concentrations and incubated for 30 minutes, before stimulation with bovine Type II Collagen 20 μg/ml and incubation overnight at 37° C. and 5% CO2. PathHunter Detection Reagents were prepared according to the protocol provided by DiscoverX and 20 μl/well of this mix were added to each well. After incubating the plates for 1 hour at room temperature in the dark, luminescence signal was acquired with a plate reader. Raw data were normalized to vehicle control (0% for normalization) and positive control (100% for normalization; cells treated with 20 μg/ml collagen II) and IC50 parameters were calculated in GraphPad Prism 8.0 software, using sigmoidal dose-response curve fitting with variable slope.

DDR2 [1] = test: DDR2 cell based assay (phospho-ELISA in HEK293T-DDR2 cells); design: species or system human; conditions: DDR2 phosphorylation, bovine Type II Collagen 50 μg/ml, read-out: IC50DDR2
Experimental: The inhibition of DDR2 phosphorylation by compounds was evaluated in HEK293T-DDR2 recombinant cells by phospho-ELISA assay. Briefly, HEK293T-DDR2 cells were seeded in poly-D-lysine-coated 24-well plates at a density of 250.000 cells/well and incubated for 1.5 hours at 37° C. and 5% CO2 in DMEM+10% FBS. After that, the medium was changed to serum-free DMEM and cells were incubated for 3 hours. Then. test compounds were added at different concentrations 30 minutes before stimulation with bovine Type II Collagen at 50 μg/ml for further 3 hours. For DDR2 phospho-ELISA assay (DuoSet IC Human Phospho-DDR2; R&D Systems), protein extracts were obtained by adding 60 μl/well of lysis buffer prepared according to the manufacturer's instructions.
Protein concentration in the samples was determined by BCA assay and the levels of phospho-DDR2 were determined following R&D Systems indications. Raw data were normalized to maximal inhibition control (0% for normalization) and positive control (100% for normalization; cells treated with 20 μg/ml collagen II) and IC50 parameters were calculated in GraphPad Prism 8.0 software, using sigmoidal dose-response curve fitting with variable slope.

DDR1 = DDR1 LanthaScreen Europium Kinase Binding assay; conditions: 5 nM DDR1, 1 hour at room temperature, Ki from IC50 by Cheng-Prusoff, read-out: Ki DDR1
Experimental: (§1) DDR1 and DDR2 binding assays were performed using Life Technologies LanthaScreen™ Europium Kinase Binding assay. The compounds were incubated with 5 nM DDR1 (Carna Biosciences) or 5 nM DDR2 (Life Technologies) for 1 hour at room temperature in white 384-well OptiPlate (PerkinElmer), containing 20 nM or 10 nM Kinase Tracer 178 respectively and 2 nM Europium labelled anti-GST antibody (Life Technologies) in assay buffer (50 mM HEPES pH 7.5, 10 mM MgCl2, 1 mM EGTA and 0.01% BRIJ35). The ratio of fluorescence emission 665 nm/615 nm after excitation at 340 nm was obtained using the Tecan Spark 20M plate reader. IC50 values were determined in GraphPad Prism 8.0 software, using 4 parameter model: log(inhibitor) vs. response. IC50 values were converted in Ki using the Cheng-Prusoff equation (Ki=IC50/(1+[Tracer]/Kd).

DDR2 [2] = test: DDR2 LanthaScreen Europium Kinase Binding assay; conditions: 5 nM DDR2, 1 hour at room temperature, Ki from IC50 by Cheng-Prusoff, read-out: Ki DDR2
Experimental: as §1

| SMILES | IC50 (DDR1 receptor) | IC50 (DDR2 [1]) | Ki (DDR1) | Ki (DDR2 [2]) |
| --- | --- | --- | --- | --- |
| CN1CCN(Cc2cc(C(=O)Nc3ccc4c(c3)N(Cc3cnc(Nc5cnn(C)c5)nc3)CC4)cc(C(F)(F)F)c2)CC1 [Example 4, N-(1-((2-((1-methyl-1H-pyrazol-4-yl)amino)pyrimidin-5-yl)methyl)indolin-6-yl)-3-((4-methylpiperazin-1-yl)methyl)-5-(trifluoromethyl)benzamide] | < 25 nM | < 25 nM | < 25 nM | < 25 nM |
| CNc1ccc(CN2CCc3ccc(C(=O)Nc4ccc(CN5CCN(C)CC5)c(C(F)(F)F)c4)cc32)cn1 [Example 14, 1-((6-(methylamino)pyridin-3-yl)methyl)-N-(4-((4-methylpiperazin-1-yl)methyl)-3-(trifluoromethyl)phenyl)indoline-6-carboxamide] | < 25 nM | 50 to 80 nM | < 25 nM | 25 to 50 nM |
| CC(=O)Nc1ccc(CN2CCc3ccc(C(=O)Nc4ccc(CN5CCN(C)CC5)c(C(F)(F)F)c4)cc32)cn1 [Example 13, 1-((6-acetamidopyridin-3-yl)methyl)-N-(4-((4-methylpiperazin-1-yl)methyl)-3-(trifluoromethyl)phenyl)indoline-6-carboxamide] | < 25 nM | 50 to 80 nM | < 25 nM | 25 to 50 nM |
| COCCn1cc(Nc2ncc(CN3CCc4ccc(C(=O)Nc5cccc(C(F)(F)F)c5)cc43)cn2)cn1 [Example 16, 1-((2-((1-(2-methoxyethyl)-1H-pyrazol-4-yl)amino)pyrimidin-5-yl)methyl)-N-(3-(trifluoromethyl)phenyl)indoline-6-carboxamide] | < 25 nM | < 25 nM | < 25 nM | < 25 nM |

Reference: patent US20240190847A1, “INDOLINE DERIVATIVES AS DDR1 AND DDR2 INHIBITORS” (CHIESI FARMACEUTICI S.P.A., priority 2021, published 2024)
